Source: the kinase profiling compilation of Christmann-Franck et al. (2016)

Experiments:
Assay in all cases: radiometric filter-binding kinase assay
STK3 (human) = STK3 (human) (UniProt Q13188)
AURKA (human) = AURKA (human) (UniProt O14965)
EPHB2 (human) = EPHB2 (human) (UniProt P29323)
MARK3 (human) = MARK3 (human) (UniProt P27448)
DYRK3 (human) = DYRK3 (human) (UniProt O43781)
INSR (human) = INSR (human) (UniProt P06213); conditions: compound 0.1 µM
TAOK1 (human) = TAOK1 (human) (UniProt Q7L7X3); conditions: compound 0.1 µM
GCK (human) = GCK (human) (UniProt Q12851)
MAP3K11 (human) = MAP3K11 (human) (UniProt Q16584)
BRSK2 (human) = BRSK2 (human) (UniProt Q8IWQ3)
SYK (human) = SYK (human) (UniProt P43405)
MAPK10 (human) = MAPK10 (human) (UniProt P53779)
MAPK8 (human) = MAPK8 (human) (UniProt P45983)
Chain of MAPK8 (human) (P45983 whole entry, looked up): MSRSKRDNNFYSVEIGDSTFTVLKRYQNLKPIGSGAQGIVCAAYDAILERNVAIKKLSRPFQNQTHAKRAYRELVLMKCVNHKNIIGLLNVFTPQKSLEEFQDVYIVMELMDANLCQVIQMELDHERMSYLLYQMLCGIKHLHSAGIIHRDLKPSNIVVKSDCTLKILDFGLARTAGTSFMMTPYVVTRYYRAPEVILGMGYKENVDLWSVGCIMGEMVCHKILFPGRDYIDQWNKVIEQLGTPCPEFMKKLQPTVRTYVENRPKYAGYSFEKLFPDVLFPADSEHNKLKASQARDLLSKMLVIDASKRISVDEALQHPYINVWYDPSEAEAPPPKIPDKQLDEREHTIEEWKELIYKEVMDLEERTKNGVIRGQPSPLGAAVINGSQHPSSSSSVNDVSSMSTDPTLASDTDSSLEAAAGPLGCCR

PRKCA (human) = PRKCA (human) (UniProt P17252)
FLT1 (human) = FLT1 (human) (UniProt P17948)
EPHB1 (human) = EPHB1 (human) (UniProt P54762)
PIM1 (human) = PIM1 (human) (UniProt P11309)
Chain of PIM1 (human) (P11309 whole entry, looked up): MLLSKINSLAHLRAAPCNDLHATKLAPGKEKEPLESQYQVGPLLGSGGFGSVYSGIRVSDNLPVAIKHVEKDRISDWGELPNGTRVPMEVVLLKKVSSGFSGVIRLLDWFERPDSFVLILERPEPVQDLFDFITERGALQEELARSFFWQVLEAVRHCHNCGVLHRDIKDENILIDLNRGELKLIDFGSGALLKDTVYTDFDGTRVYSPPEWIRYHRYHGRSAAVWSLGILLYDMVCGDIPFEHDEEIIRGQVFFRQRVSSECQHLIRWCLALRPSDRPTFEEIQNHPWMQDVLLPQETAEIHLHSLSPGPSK

BRSK1 (human) = BRSK1 (human) (UniProt Q8TDC3)
Chain of BRSK1 (human) (Q8TDC3 whole entry, looked up): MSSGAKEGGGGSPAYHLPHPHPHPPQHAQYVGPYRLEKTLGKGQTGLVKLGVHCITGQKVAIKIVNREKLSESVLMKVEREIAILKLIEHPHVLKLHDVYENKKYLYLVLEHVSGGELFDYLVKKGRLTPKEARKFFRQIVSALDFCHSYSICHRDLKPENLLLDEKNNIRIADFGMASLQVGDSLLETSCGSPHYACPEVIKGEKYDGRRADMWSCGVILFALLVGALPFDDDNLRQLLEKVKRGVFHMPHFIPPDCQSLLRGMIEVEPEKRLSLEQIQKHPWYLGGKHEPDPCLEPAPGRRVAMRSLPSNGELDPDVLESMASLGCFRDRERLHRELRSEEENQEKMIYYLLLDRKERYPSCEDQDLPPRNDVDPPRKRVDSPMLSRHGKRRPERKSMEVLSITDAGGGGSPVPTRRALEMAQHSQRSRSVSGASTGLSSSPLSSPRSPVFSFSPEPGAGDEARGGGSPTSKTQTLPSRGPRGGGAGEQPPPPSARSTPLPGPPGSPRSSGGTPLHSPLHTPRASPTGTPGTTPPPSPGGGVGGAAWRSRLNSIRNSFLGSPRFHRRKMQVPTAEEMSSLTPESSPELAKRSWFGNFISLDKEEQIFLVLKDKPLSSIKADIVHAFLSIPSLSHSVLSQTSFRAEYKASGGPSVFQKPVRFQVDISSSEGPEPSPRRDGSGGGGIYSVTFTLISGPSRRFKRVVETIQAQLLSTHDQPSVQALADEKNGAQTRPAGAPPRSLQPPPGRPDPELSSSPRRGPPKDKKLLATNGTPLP

HIPK1 (human) = HIPK1 (human) (UniProt Q86Z02)
MAP3K5 (human) = MAP3K5 (human) (UniProt Q99683)
TBK1 (human) = TBK1 (human) (UniProt Q9UHD2)
CaMK1 (human) = CaMK1 (human) (UniProt Q14012)
BTK (human) = BTK (human) (UniProt Q06187); conditions: compound 1.0 µM
MAPK11 (human) = MAPK11 (human) (UniProt Q15759)
Chain of MAPK11 (human) (Q15759 whole entry, looked up): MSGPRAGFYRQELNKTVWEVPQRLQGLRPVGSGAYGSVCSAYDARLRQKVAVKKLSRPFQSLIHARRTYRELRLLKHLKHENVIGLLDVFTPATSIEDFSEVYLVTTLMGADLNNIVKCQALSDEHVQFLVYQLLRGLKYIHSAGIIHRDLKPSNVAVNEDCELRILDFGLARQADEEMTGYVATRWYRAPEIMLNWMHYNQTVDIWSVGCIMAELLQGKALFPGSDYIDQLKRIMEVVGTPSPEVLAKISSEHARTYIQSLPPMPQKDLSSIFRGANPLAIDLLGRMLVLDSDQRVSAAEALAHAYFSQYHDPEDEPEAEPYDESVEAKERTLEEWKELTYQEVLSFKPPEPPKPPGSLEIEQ

MAP3K1 (human) = MAP3K1 (human) (UniProt Q13233)
[1] = test system: AKT1 (human), P31749 [S473D]
EPHB4 (human) = EPHB4 (human) (UniProt P54760)
MAP2K1 (human) = MAP2K1 (human) (UniProt Q02750)
MAPKAPK5 (human) = MAPKAPK5 (human) (UniProt Q8IW41)
HIPK2 (human) = HIPK2 (human) (UniProt Q9H2X6)
Chain of HIPK2 (human) (Q9H2X6 whole entry, looked up): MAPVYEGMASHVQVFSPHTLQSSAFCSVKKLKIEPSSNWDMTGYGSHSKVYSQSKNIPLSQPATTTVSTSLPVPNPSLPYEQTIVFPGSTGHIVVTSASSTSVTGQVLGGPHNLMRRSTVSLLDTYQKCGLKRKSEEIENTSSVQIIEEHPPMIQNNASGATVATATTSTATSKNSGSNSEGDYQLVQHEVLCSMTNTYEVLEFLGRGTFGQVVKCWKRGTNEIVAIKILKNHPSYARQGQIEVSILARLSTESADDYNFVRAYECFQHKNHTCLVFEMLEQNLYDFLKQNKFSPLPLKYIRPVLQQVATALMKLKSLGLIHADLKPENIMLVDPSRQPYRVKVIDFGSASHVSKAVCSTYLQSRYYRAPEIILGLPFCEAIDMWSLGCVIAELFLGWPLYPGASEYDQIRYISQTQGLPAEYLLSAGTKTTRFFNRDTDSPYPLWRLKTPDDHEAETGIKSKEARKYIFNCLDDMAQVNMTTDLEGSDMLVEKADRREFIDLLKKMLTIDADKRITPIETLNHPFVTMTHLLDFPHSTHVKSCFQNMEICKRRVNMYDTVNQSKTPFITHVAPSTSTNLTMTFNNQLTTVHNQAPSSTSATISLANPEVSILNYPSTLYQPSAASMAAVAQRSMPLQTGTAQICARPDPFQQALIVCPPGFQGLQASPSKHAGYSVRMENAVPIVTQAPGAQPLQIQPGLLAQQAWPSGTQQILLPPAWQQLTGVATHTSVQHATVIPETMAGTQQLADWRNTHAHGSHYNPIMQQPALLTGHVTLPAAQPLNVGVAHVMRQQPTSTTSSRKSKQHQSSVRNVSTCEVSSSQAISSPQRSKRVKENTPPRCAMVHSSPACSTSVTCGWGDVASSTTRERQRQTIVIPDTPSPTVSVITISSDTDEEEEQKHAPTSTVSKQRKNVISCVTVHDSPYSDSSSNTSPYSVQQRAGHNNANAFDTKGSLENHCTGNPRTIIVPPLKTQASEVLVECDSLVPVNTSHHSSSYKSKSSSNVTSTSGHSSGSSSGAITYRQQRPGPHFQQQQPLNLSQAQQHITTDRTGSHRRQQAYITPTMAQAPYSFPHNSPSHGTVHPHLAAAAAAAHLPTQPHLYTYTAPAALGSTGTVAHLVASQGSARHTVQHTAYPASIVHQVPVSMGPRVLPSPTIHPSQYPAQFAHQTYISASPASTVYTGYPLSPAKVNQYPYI

DYRK2 (human) = DYRK2 (human) (UniProt Q92630); conditions: compound 1.0 µM
YES1 (human) = YES1 (human) (UniProt P07947)
MAPK9 (human) = MAPK9 (human) (UniProt P45984)
JAK2 JH1 JH2 (human) = JAK2 JH1 JH2 (human) (UniProt O60674)
Chain of JAK2 JH1 JH2 (human) (O60674 whole entry, looked up): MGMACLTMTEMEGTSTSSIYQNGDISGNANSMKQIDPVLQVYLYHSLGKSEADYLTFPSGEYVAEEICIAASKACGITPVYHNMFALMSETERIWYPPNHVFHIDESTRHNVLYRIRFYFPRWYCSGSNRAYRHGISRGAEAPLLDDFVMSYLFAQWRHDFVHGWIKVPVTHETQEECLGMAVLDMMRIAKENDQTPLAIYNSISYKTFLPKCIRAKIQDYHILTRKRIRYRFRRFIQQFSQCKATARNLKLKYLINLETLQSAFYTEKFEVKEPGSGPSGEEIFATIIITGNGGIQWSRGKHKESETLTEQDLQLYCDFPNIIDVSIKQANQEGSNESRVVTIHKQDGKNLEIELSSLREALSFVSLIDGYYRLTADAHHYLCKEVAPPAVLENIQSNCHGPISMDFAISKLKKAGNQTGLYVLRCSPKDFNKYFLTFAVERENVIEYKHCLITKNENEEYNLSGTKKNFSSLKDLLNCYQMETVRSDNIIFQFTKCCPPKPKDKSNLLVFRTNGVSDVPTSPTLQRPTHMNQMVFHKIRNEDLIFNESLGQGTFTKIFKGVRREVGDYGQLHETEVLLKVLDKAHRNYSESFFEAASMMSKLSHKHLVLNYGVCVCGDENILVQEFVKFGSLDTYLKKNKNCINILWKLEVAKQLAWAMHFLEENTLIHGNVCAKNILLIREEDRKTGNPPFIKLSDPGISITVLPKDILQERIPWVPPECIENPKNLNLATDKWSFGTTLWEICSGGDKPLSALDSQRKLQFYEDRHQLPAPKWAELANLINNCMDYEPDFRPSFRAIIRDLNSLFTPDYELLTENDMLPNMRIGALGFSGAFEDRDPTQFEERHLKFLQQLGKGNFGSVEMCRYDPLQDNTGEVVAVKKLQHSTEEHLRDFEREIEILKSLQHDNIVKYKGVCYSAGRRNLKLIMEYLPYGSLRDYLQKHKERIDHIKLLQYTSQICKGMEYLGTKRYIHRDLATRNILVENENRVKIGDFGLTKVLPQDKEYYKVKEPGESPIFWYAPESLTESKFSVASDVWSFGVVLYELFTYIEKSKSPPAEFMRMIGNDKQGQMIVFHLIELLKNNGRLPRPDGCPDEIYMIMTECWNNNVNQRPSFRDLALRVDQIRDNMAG

EPHA2 (human) = EPHA2 (human) (UniProt P29317)
[2] = test system: RPS6KB1 (human), P23443 [T412E]

## CN(C)C/C=C/C(=O)Nc1cccc(C(=O)Nc2ccc(Nc3nccc(-c4cccnc4)n3)cc2)c1
STK3 (human); compound 0.1 µM
  residual activity: 83%
STK3 (human); compound 1.0 µM
  residual activity: 64%
AURKA (human); compound 0.1 µM
  residual activity: 107%
AURKA (human); compound 1.0 µM
  residual activity: 97%
EPHB2 (human); compound 0.1 µM
  residual activity: 101%
EPHB2 (human); compound 1.0 µM
  residual activity: 103%
MARK3 (human); compound 0.1 µM
  residual activity: 101%
MARK3 (human); compound 1.0 µM
  residual activity: 76%
DYRK3 (human); compound 0.1 µM
  residual activity: 81%
DYRK3 (human); compound 1.0 µM
  residual activity: 79%
INSR (human)
  residual activity: 81%
TAOK1 (human)
  residual activity: 96%
GCK (human); compound 0.1 µM
  residual activity: 45%
GCK (human); compound 1.0 µM
  residual activity: 20%
MAP3K11 (human); compound 0.1 µM
  residual activity: 79%
MAP3K11 (human); compound 1.0 µM
  residual activity: 59%
BRSK2 (human); compound 0.1 µM
  residual activity: 82%
BRSK2 (human); compound 1.0 µM
  residual activity: 76%
SYK (human); compound 0.1 µM
  residual activity: 89%
SYK (human); compound 1.0 µM
  residual activity: 72%
MAPK10 (human); compound 0.1 µM
  residual activity: 15%
MAPK10 (human); compound 1.0 µM
  residual activity: 16%
MAPK8 (human); compound 0.1 µM
  residual activity: 9%
MAPK8 (human); compound 1.0 µM
  residual activity: 4%
PRKCA (human); compound 0.1 µM
  residual activity: 89%
PRKCA (human); compound 1.0 µM
  residual activity: 97%
FLT1 (human); compound 0.1 µM
  residual activity: 59%
FLT1 (human); compound 1.0 µM
  residual activity: 32%
EPHB1 (human); compound 0.1 µM
  residual activity: 93%
EPHB1 (human); compound 1.0 µM
  residual activity: 86%
PIM1 (human); compound 0.1 µM
  residual activity: 97%
PIM1 (human); compound 1.0 µM
  residual activity: 114%
BRSK1 (human); compound 0.1 µM
  residual activity: 94%
BRSK1 (human); compound 1.0 µM
  residual activity: 86%
HIPK1 (human); compound 0.1 µM
  residual activity: 86%
HIPK1 (human); compound 1.0 µM
  residual activity: 78%
MAP3K5 (human); compound 0.1 µM
  residual activity: 96%
MAP3K5 (human); compound 1.0 µM
  residual activity: 100%
TBK1 (human); compound 0.1 µM
  residual activity: 77%
TBK1 (human); compound 1.0 µM
  residual activity: 79%
CaMK1 (human); compound 0.1 µM
  residual activity: 87%
CaMK1 (human); compound 1.0 µM
  residual activity: 92%
BTK (human)
  residual activity: 85%
MAPK11 (human); compound 0.1 µM
  residual activity: 96%
MAPK11 (human); compound 1.0 µM
  residual activity: 82%
MAP3K1 (human); compound 0.1 µM
  residual activity: 85%
MAP3K1 (human); compound 1.0 µM
  residual activity: 100%
[1]; compound 0.1 µM
  residual activity: 92%
[1]; compound 1.0 µM
  residual activity: 104%
EPHB4 (human); compound 0.1 µM
  residual activity: 105%
EPHB4 (human); compound 1.0 µM
  residual activity: 109%
MAP2K1 (human); compound 0.1 µM
  residual activity: 98%
MAP2K1 (human); compound 1.0 µM
  residual activity: 113%
MAPKAPK5 (human); compound 0.1 µM
  residual activity: 96%
MAPKAPK5 (human); compound 1.0 µM
  residual activity: 85%
HIPK2 (human); compound 0.1 µM
  residual activity: 85%
HIPK2 (human); compound 1.0 µM
  residual activity: 46%
DYRK2 (human)
  residual activity: 56%
YES1 (human); compound 0.1 µM
  residual activity: 80%
YES1 (human); compound 1.0 µM
  residual activity: 58%
MAPK9 (human); compound 0.1 µM
  residual activity: 81%
MAPK9 (human); compound 1.0 µM
  residual activity: 19%
JAK2 JH1 JH2 (human); compound 0.1 µM
  residual activity: 85%
JAK2 JH1 JH2 (human); compound 1.0 µM
  residual activity: 77%
EPHA2 (human); compound 0.1 µM
  residual activity: 110%
EPHA2 (human); compound 1.0 µM
  residual activity: 125%
[2]; compound 0.1 µM
  residual activity: 88%
[2]; compound 1.0 µM
  residual activity: 112%
